Measurements published in ChEMBL document CHEMBL1681690, “Discovery of TAK-733, a potent and selective MEK allosteric site inhibitor for the treatment of cancer” (Bioorg Med Chem Lett, 2011).
pEC50, pIC50: −log10 of the molar value. Active and inactive are the calls of the source. No cut-off for these calls is given here.

Key:
A-375 = assay: Cytotoxicity against human A375 cells after 72 hrs by MTS assay; settings: A-375, 72 h
[1] = Half life in rat liver microsomes; type: ADME, Microsome
[2] = Half life in human liver microsomes; type: ADME, Microsome
COLO 205 = assay: Cytotoxicity against human COLO205 cells after 72 hrs by MTS assay; settings: COLO 205, 72 h
[3] = target: Dual specificity mitogen-activated protein kinase kinase 1 (Homo sapiens, UniProt Q02750)
Sequence of Dual specificity mitogen-activated protein kinase kinase 1 (Q02750 whole entry): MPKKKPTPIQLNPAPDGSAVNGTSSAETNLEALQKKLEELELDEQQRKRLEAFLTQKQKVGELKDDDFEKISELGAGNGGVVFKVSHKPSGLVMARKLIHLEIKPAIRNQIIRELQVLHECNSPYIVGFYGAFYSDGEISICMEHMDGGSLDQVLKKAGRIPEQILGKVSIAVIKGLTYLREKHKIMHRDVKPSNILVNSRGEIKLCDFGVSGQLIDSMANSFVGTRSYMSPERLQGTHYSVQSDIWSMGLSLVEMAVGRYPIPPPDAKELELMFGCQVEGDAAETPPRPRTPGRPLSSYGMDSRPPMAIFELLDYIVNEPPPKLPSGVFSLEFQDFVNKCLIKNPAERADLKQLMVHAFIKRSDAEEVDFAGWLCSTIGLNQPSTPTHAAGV
Description: Inhibition of MEK1 by IMAP assay

[4] = target: Tyrosine-protein kinase ABL1 (Homo sapiens) (UniProt P00519); assay: Inhibition of Abl1 up to 10 uM
[5] = Plasma protein binding in mouse; type: ADME, cell-free; settings: read-out: PPB (converted)
[6] = target: Serine/threonine-protein kinase PLK3 (Homo sapiens) (UniProt Q9H4B4); assay: Inhibition of PLK3 up to 10 uM
[7] = Volume of distribution at steady state in dog at 0.6 mg/kg, iv and 2.3 mg/kg, po; type: ADME, organism-based, Canis lupus familiaris; settings: in vivo, read-out: Vdss
[8] = target: Platelet-derived growth factor receptor beta (Homo sapiens) (UniProt P09619); assay: Inhibition of PDGFRbeta up to 10 uM
[9] = target: Epidermal growth factor receptor (Homo sapiens) (UniProt P00533); assay: Inhibition of EGFR up to 10 uM
[10] = Plasma protein binding in human; type: ADME, cell-free; settings: read-out: PPB (converted)
[11] = target: Tyrosine-protein kinase SYK (Homo sapiens) (UniProt P43405); assay: Inhibition of Syk up to 10 uM
[12] = Volume of distribution at steady state in mouse at 1.4 mg/kg, iv and […], po; type: ADME, organism-based; settings: in vivo, read-out: Vdss
[13] = Mean residence time in mouse at […], po; type: ADME, organism-based; design: dose 7.8 mg/kg, route oral; settings: in vivo
[14] = Mean residence time in dog at 2.3 mg/kg, po; type: ADME, organism-based, Canis lupus familiaris; design: dose 2.3 mg/kg, route oral; settings: in vivo
[15] = Mean residence time in rat at 4.2 mg/kg, po; type: ADME, organism-based; design: dose 4.2 mg/kg, route oral; settings: in vivo
[16] = target: Angiopoietin-1 receptor (Homo sapiens) (UniProt Q02763); assay: Inhibition of Tie2 up to 10 uM
[17] = target: Protein kinase C alpha type (Homo sapiens) (UniProt P17252); assay: Inhibition of PKCalpha up to 10 uM
[18] = target: [Pyruvate dehydrogenase (acetyl-transferring)] kinase isozyme 1, mitochondrial (Homo sapiens) (UniProt Q15118); assay: Inhibition of PDK1 up to 10 uM
[19] = Oral bioavailability in dog at 2.3 mg/kg; type: ADME, organism-based, Canis lupus familiaris; settings: in vivo
[20] = target: Tyrosine-protein kinase JAK3 (Homo sapiens) (UniProt P52333); assay: Inhibition of JAK3 up to 10 uM
[21] = Mean residence time in monkey at 2 mg/kg, po; type: ADME, organism-based, Macaca mulatta; design: dose 2 mg/kg, route oral; settings: rhesus monkey, in vivo
[22] = Clearance in mouse at 1.4 mg/kg, iv and […] mg/kg, po; type: ADME, organism-based; settings: in vivo
[23] = target: Cyclin-dependent kinase 2/cyclin A (Homo sapiens) (UniProt P24941+P20248+P78396); assay: Inhibition of CDK2/cyclin A up to 10 uM; type: protein-complex assay
[24] = target: Calcium/calmodulin-dependent protein kinase type 1D (Homo sapiens) (UniProt Q8IU85); assay: Inhibition of CamK1delta up to 10 uM
[25] = Clearance in monkey at 0.5 mg/kg, iv and 2 mg/kg, po; type: ADME, organism-based, Macaca mulatta; settings: rhesus monkey, in vivo
[26] = Volume of distribution at steady state in rat at 1 mg/kg, iv and 4.2 mg/kg, po; type: ADME, organism-based; settings: in vivo, read-out: Vdss
[27] = target: RAC-gamma serine/threonine-protein kinase (Homo sapiens) (UniProt Q9Y243); assay: Inhibition of AKT3 up to 10 uM
[28] = Mean residence time in dog at 0.6 mg/kg, iv; type: ADME, organism-based, Canis lupus familiaris; design: dose 0.6 mg/kg, route intravenous; settings: in vivo
[29] = Mean residence time in monkey at 0.5 mg/kg, iv; type: ADME, organism-based, Macaca mulatta; design: dose 0.5 mg/kg, route intravenous; settings: rhesus monkey, in vivo
[30] = Volume of distribution at steady state in monkey at 0.5 mg/kg, iv and 2 mg/kg, po; type: ADME, organism-based, Macaca mulatta; settings: rhesus monkey, in vivo, read-out: Vdss
[31] = target: Glycogen synthase kinase-3 beta (Homo sapiens) (UniProt P49841); assay: Inhibition of GSK3-beta up to 10 uM
Sequence of Glycogen synthase kinase-3 beta (Homo sapiens) (P49841 whole entry, looked up): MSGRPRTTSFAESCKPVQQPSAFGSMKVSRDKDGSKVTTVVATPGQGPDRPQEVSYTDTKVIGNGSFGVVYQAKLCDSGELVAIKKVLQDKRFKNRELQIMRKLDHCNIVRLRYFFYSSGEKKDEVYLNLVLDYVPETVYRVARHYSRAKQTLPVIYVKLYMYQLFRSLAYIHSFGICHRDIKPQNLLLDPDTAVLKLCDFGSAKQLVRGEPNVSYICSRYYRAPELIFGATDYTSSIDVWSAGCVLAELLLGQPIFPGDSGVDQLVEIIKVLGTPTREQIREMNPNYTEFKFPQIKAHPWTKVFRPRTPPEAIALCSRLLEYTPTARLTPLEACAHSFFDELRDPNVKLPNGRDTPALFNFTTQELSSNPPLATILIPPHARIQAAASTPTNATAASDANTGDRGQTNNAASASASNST

[32] = target: Insulin receptor (Homo sapiens) (UniProt P06213); assay: Inhibition of IR up to 10 uM
Sequence of Insulin receptor (Homo sapiens) (P06213 28-758 limits assumed): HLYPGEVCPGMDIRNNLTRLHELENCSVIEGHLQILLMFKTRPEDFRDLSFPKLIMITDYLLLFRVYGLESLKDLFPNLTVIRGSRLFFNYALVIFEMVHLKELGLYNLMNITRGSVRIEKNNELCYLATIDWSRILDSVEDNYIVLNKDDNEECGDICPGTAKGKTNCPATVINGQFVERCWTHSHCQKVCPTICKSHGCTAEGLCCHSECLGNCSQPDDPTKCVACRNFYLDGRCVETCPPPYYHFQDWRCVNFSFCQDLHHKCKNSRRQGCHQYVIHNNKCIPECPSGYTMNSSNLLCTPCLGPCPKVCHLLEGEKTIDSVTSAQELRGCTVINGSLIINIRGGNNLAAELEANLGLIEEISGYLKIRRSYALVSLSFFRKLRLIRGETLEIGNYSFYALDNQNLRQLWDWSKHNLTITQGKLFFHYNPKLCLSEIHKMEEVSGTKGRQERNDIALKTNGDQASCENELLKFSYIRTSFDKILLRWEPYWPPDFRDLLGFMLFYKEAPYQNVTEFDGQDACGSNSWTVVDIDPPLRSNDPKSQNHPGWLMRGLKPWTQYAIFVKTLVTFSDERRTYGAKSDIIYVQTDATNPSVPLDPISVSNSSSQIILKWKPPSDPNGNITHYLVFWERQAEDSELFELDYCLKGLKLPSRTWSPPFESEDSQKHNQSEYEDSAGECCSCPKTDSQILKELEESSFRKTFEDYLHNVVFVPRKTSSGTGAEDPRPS
Sequence of Insulin receptor (Homo sapiens) (P06213 763-1382 limits assumed): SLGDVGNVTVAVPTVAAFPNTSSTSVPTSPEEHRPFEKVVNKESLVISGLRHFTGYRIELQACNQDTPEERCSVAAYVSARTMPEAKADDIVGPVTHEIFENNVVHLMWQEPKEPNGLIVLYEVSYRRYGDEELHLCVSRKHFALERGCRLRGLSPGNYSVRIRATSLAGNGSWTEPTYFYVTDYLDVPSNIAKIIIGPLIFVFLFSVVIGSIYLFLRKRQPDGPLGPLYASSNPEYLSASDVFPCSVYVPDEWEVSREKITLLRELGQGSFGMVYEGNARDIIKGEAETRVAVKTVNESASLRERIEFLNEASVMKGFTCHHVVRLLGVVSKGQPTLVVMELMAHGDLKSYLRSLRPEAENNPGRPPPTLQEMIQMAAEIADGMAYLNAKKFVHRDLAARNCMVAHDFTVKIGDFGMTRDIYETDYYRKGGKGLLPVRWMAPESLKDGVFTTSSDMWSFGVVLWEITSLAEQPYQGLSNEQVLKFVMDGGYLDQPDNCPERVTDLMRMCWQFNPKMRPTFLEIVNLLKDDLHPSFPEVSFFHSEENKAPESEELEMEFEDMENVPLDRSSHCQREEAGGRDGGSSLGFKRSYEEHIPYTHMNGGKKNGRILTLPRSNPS

[33] = target: Mitogen-activated protein kinase 14 (Homo sapiens) (UniProt Q16539); assay: Inhibition of p38alpha up to 10 uM
[34] = Oral bioavailability in rat at 4.2 mg/kg; type: ADME, organism-based; settings: in vivo
[35] = Oral bioavailability in mouse at […]; type: ADME, organism-based; settings: in vivo
[36] = target: RAF proto-oncogene serine/threonine-protein kinase (Homo sapiens) (UniProt P04049); assay: Inhibition of c-RAF up to 10 uM
[37] = Clearance in rat at 1 mg/kg, iv and 4.2 mg/kg, po; type: ADME, organism-based; settings: in vivo
[38] = target: Proto-oncogene tyrosine-protein kinase Src (Homo sapiens) (UniProt P12931); assay: Inhibition of c-SRC up to 10 uM
Sequence of Proto-oncogene tyrosine-protein kinase Src (Homo sapiens) (P12931 2-536 limits assumed): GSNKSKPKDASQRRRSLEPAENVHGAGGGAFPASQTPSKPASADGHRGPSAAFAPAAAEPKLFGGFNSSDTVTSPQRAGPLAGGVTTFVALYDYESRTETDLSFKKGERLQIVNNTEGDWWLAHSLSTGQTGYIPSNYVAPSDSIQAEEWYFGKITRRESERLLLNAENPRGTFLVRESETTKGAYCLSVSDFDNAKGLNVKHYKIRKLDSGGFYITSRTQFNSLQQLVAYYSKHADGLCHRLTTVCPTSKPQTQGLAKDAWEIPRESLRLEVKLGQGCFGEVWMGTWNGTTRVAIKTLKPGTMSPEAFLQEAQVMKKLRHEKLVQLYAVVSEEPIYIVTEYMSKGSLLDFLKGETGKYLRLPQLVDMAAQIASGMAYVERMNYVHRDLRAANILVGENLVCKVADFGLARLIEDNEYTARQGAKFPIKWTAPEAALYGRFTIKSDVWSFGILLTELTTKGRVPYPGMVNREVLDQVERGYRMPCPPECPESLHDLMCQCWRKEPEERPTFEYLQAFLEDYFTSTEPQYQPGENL

[39] = target: Hepatocyte growth factor receptor (Homo sapiens) (UniProt P08581); assay: Inhibition of c-Met up to 10 uM
Sequence of Hepatocyte growth factor receptor (Homo sapiens) (P08581 whole entry): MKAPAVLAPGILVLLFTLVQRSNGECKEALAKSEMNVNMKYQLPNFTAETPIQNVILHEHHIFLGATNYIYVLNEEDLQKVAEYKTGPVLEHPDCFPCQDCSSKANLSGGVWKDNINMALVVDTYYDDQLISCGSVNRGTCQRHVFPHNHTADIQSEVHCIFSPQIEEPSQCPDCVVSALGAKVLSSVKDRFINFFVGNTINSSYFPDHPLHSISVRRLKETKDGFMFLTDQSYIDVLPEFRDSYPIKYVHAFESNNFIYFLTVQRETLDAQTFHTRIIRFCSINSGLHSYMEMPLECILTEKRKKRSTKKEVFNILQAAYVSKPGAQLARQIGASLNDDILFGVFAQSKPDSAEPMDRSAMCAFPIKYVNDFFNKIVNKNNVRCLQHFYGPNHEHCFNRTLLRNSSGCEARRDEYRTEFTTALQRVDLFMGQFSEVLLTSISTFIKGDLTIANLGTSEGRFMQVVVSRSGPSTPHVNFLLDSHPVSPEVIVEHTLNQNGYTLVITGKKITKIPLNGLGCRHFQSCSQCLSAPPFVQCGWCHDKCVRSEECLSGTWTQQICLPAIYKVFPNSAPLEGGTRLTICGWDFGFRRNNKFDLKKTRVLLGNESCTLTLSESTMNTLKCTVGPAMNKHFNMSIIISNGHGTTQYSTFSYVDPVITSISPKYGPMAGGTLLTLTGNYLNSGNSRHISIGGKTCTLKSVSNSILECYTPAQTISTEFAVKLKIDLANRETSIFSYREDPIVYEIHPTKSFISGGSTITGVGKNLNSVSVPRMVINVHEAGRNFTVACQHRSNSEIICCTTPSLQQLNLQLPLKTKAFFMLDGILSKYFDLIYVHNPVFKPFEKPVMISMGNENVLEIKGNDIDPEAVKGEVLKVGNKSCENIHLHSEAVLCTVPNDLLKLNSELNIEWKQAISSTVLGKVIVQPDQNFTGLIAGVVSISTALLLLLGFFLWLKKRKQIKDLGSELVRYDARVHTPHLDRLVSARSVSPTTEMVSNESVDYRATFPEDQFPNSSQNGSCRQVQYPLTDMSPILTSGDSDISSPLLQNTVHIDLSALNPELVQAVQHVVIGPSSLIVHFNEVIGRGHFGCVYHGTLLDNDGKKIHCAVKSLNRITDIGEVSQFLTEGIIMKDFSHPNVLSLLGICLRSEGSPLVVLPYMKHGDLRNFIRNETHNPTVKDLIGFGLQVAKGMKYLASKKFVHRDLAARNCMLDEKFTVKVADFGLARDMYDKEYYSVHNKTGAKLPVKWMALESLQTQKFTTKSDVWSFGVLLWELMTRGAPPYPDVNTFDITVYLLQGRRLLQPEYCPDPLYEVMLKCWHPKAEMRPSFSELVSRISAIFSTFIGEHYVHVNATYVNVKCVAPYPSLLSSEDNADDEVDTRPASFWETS

[40] = Oral bioavailability in monkey at 2 mg/kg; type: ADME, organism-based, Macaca mulatta; settings: rhesus monkey, in vivo
[41] = Inhibition of CYP450 up to 30 uM; type: ADME
[42] = Mean residence time in rat at 1 mg/kg, iv; type: ADME, organism-based; design: dose 1 mg/kg, route intravenous; settings: in vivo
[43] = Clearance in dog at 0.6 mg/kg, iv and 2.3 mg/kg, po; type: ADME, organism-based, Canis lupus familiaris; settings: in vivo
[44] = Mean residence time in mouse at 1.4 mg/kg, iv; type: ADME, organism-based; design: dose 1.4 mg/kg, route intravenous; settings: in vivo

## Cn1c(=O)c(F)c(Nc2ccc(Br)cc2F)c2c(=O)n(C[C@@H](O)CO)cnc21
A-375
  pEC50: 7.30
[1]
  half-life: 0.817 h
[2]
  half-life: 3.13 h
COLO 205
  pEC50: 7.42

## Cn1c(=O)cc(Nc2ccc(I)cc2F)c2c(=O)n(CCCO)cnc21
A-375
  pEC50: 7.64
[1]
  half-life: 0.333 h
[2]
  half-life: > 3.33 h
COLO 205
  pEC50: 7.80
[3]
  pIC50: 8.31

## Cn1c(=O)c(F)c(Nc2ccc(I)cc2F)c2c(=O)n(CCO)cnc21
A-375
  pEC50: 8.20
[1]
  half-life: 0.483 h
[2]
  half-life: 0.85 h
COLO 205
  pEC50: 8.43

## Cn1c(=O)c(F)c(Nc2ccc(I)cc2F)c2c(=O)n(C[C@@H](O)CO)cnc21 [TAK-733]
A-375
  pEC50: 8.51
[4]
  inhibition: inactive
[5]
  fraction unbound: 0.04
[6]
  inhibition: inactive
[1]
  half-life: 2.25 h
[7]
  Vd: 3.07 L/kg
[8]
  inhibition: inactive
[9]
  inhibition: inactive
[10]
  fraction unbound: 0.03
[11]
  inhibition: inactive
[12]
  Vd: 1.96 L/kg
[13]
  MRT: 4.6 h
[14]
  MRT: 12.9 h
[15]
  MRT: 11.5 h
[16]
  inhibition: inactive
[17]
  inhibition: inactive
[18]
  inhibition: inactive
[19]
  bioavailability: 76%
[2]
  half-life: 2.38 h
[20]
  inhibition: inactive
[21]
  MRT: 23.8 h
[22]
  clearance: 17.2 mL/min/kg
[23]
  inhibition: inactive
[24]
  inhibition: inactive
[25]
  clearance: 11.1 mL/min/kg
[26]
  Vd: 1.64 L/kg
[27]
  inhibition: inactive
[28]
  MRT: 8.9 h
[29]
  MRT: 5.8 h
[30]
  Vd: 3.75 L/kg
[31]
  inhibition: inactive
[32]
  inhibition: inactive
[33]
  inhibition: inactive
[34]
  bioavailability: 71%
[35]
  bioavailability: 67%
[36]
  inhibition: inactive
[37]
  clearance: 13.7 mL/min/kg
COLO 205
  pEC50: 8.68
[38]
  inhibition: inactive
[39]
  inhibition: inactive
[40]
  bioavailability: > 38%
[41]
  inhibition (INH): Not Active
[42]
  MRT: 2 h
[43]
  clearance: 5.9 mL/min/kg
[3]
  pIC50: 8.49
[44]
  MRT: 1.9 h

## Cn1c(=O)c(F)c(Nc2ccc(I)cc2F)c2c(=O)n(C(CO)CO)cnc21
A-375
  pEC50: 8.10
[1]
  half-life: 0.8 h
[2]
  half-life: 0.517 h
COLO 205
  pEC50: 8.46
[3]
  pIC50: 8.48

## Cc1c(Nc2ccc(I)cc2F)c2c(=O)n(C[C@H](O)CO)cnc2n(C)c1=O
A-375
  pEC50: 8.10
[1]
  half-life: > 3.33 h
[2]
  half-life: > 3.33 h
COLO 205
  pEC50: 7.89

## Cc1c(Nc2ccc(I)cc2F)c2c(=O)n(C[C@@H](O)CO)cnc2n(C)c1=O
A-375
  pEC50: 8.13
[1]
  half-life: 1.97 h
[2]
  half-life: 1.95 h
COLO 205
  pEC50: 8.10

## Cn1c(=O)c(F)c(Nc2ccc(I)cc2F)c2c(=O)n(OC[C@H](O)CO)cnc21
A-375
  pEC50: 8.52
[1]
  half-life: 0.467 h
[2]
  half-life: 0.583 h
COLO 205
  pEC50: 9.00
[3]
  pIC50: 8.51

## Cn1c(=O)cc(Nc2ccc(I)cc2F)c2c(=O)n(C[C@@H](O)CO)cnc21
A-375
  pEC50: 7.59
[1]
  half-life: 0.417 h
[2]
  half-life: 0.8 h
COLO 205
  pEC50: 7.57

## Cc1c(Nc2ccc(I)cc2F)c2c(=O)n(CCO)cnc2n(C)c1=O
A-375
  pEC50: 7.74
[1]
  half-life: > 3.33 h
[2]
  half-life: > 3.33 h
COLO 205
  pEC50: 8.05
[3]
  pIC50: 8.40

## Cn1cnc2c(c(Nc3ccc(I)cc3F)cc(=O)n2C)c1=O
A-375
  pEC50: 7.07
[1]
  half-life: 0.217 h
[2]
  half-life: > 3.33 h
COLO 205
  pEC50: 7.31

## Cn1c(=O)cc(Nc2ccc(I)cc2F)c2c(=O)n(C[C@@H](O)CCO)cnc21
A-375
  pEC50: 6.32
[1]
  half-life: 0.667 h
[2]
  half-life: > 3.33 h
COLO 205
  pEC50: 6.85

## Cn1c(=O)c(F)c(Nc2ccc(I)cc2F)c2c(=O)n(C[C@H](O)CO)cnc21
A-375
  pEC50: 8.52
[1]
  half-life: 1.52 h
[2]
  half-life: 3.05 h
COLO 205
  pEC50: 8.59
[3]
  pIC50: 8.49

## Cn1c(=O)c(Cl)c(Nc2ccc(I)cc2F)c2c(=O)n(C[C@@H](O)CO)cnc21
A-375
  pEC50: 7.60
[1]
  half-life: > 3.33 h
[2]
  half-life: 0.367 h
COLO 205
  pEC50: 8.00
[3]
  pIC50: 8.23

## Cn1c(=O)cc(Nc2ccc(I)cc2F)c2c(=O)n(C[C@H](O)CO)cnc21
A-375
  pEC50: 7.40
[1]
  half-life: > 3.33 h
[2]
  half-life: > 3.33 h
COLO 205
  pEC50: 7.42

## C#Cc1ccc(Nc2c(F)c(=O)n(C)c3ncn(C[C@@H](O)CO)c(=O)c23)c(F)c1
A-375
  pEC50: 7.96
[1]
  half-life: 0.55 h
[2]
  half-life: 0.817 h
COLO 205
  pEC50: 8.00
[3]
  pIC50: 8.32

## Cn1c(=O)cc(Nc2ccc(I)cc2F)c2c(=O)n(CCO)cnc21
A-375
  pEC50: 7.22
[1]
  half-life: 0.183 h
[2]
  half-life: 0.617 h
COLO 205
  pEC50: 7.42

## CN(C)CCn1cnc2c(c(Nc3ccc(I)cc3F)cc(=O)n2C)c1=O
[1]
  half-life: 0.133 h
[2]
  half-life: 0.483 h
[3]
  pIC50: 6.13
